According to patent US5023254A, “Aminoalkylindoles, their production, and pharmaceutical preparations based thereon” (Schering Aktiengesellschaft, priority 1988, dated 1991):

Columns and labels:
[1] = target: T1, estrogen receptor (Bos taurus, UniProt P49884); test: relative binding affinity (RBA) for the estrogen receptor from calf uterus, displacement of 3H-17β estradiol; details: calf uterus; relative to 17 beta estradiol = 100
T1 construct: estrogen receptor from calf uterus; from tissue; host or cells: calf uterus
T1 sequence (P49884 1-596): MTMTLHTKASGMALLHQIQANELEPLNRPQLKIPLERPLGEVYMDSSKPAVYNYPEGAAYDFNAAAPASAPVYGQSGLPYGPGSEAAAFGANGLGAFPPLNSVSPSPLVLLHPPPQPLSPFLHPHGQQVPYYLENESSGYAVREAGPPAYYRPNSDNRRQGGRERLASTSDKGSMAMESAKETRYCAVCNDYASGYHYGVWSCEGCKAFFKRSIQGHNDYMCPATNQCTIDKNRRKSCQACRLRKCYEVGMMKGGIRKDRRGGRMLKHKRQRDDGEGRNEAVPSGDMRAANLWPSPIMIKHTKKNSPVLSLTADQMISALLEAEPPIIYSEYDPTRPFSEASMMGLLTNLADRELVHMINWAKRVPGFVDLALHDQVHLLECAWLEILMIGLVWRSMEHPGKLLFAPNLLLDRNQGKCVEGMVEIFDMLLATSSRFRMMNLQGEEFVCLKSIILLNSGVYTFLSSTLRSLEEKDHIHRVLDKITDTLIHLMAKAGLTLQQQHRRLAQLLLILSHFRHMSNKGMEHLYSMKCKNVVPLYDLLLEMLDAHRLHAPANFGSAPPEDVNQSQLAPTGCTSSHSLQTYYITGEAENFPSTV
From the text: *Relative binding affinities for the estrogen receptor from calf uterus,

[2] = tested on: mouse uterus; test: Uterotrophic test on infantile mouse (estrogen activity); assay type: in vivo; design: unit not given here
From the text: (§1) This test is fully described in Cancer Treatment Reviews 1984, 11, 147, and J.Med.Chem., 1984, 27, 1439.

[3] = tested on: mouse uterus; test: Antiuterotrophic test on infantile mouse (anti-estrogen activity); assay type: in vivo; design: Antiuterotrophic Test Rel. uterus wgt / Antiuterotrophic Test Action (rel. uterus wgt): unit not given here
From the text: as §1

[4] = tested on: human MCF-7 breast cancer cells; test: growth of hormone-dependent human MCF-7 breast cancer cells, cell count; assay type: cell-based; details: Homo sapiens, MCF7, read-out: Cell Count (% T/C)
From the text: (§2) The test protocol for the research is fully described in Eur.J. Cancer Clin. Oncol.

[5] = tested on: human MCF-7 breast cancer cells; test: [3H] thymidine incorporation in hormone-dependent human MCF-7 breast cancer cells; assay type: cell-based; details: Homo sapiens, MCF7, read-out: [3H] Thymidine incorporation (% T/C)
From the text: as §2

Structure (SMILES): Cc1c(-c2ccc(O)cc2)n(CCCCN2CCCC2)c2ccc(O)cc12 [Compound 1, 5-Hydroxy-2-(4-hydroxyphenyl)-3-methyl-1-[4-pyrrolidino-butyl]-indole]
- RBA (relative binding affinity for the estrogen receptor) [1]: 3.6
- Uterotrophic Test Rel. uterus wgt ([2]; dose 1 ug): 7.6 ± 2.8
- Uterotrophic Test Rel. uterus wgt ([2]; dose 5 ug): 8.0 ± 3.1
- Uterotrophic Test Rel. uterus wgt ([2]; dose 25 ug): 6.4 ± 1.1
- Uterotrophic Test Rel. uterus wgt ([2]; dose 125 ug): 6.4 ± 1.3
- inhibition in vivo at 0.125 mg ([3]; Mus musculus, read-out: Antiuterotrophic Test Inhib. (%)): 53%
- Antiuterotrophic Test Rel. uterus wgt ([3]; infantile mouse, dose 1 ug): 43.7 ± 8.2
- inhibition in vivo at 0.001 mg ([3]; infantile mouse, dose 1 ug, read-out: Antiuterotrophic Test Inhib. (%)): 5%
- Antiuterotrophic Test Rel. uterus wgt ([3]; infantile mouse, dose 5 ug): 47.6 ± 10.5
- Antiuterotrophic Test Rel. uterus wgt ([3]; infantile mouse, dose 25 ug): 16.2 ± 4.6
- inhibition in vivo at 0.025 mg ([3]; infantile mouse, dose 25 ug (per animal), read-out: Antiuterotrophic Test Inhib. (%)): 78%
- Antiuterotrophic Test Rel. uterus wgt ([3]; infantile mouse, dose 125 ug): 25.5 ± 7.9
- activity at 1 µM ([4]; MCF-7, 1 × 10^-6 M): 94%
- activity at 0.1 µM ([4]; MCF-7, 1 × 10^-7 M): 106%
- activity at 5 µM ([4]; MCF-7, 5 × 10^-6 M): 62%
- activity at 0.5 µM ([4]; MCF-7, 5 × 10^-7 M): 84%
- activity at 1 µM ([5]; MCF-7, 1 × 10^-6 M): 85%
- activity at 0.1 µM ([5]; MCF-7, 1 × 10^-7 M): 67%
- activity at 5 µM ([5]; MCF-7, 5 × 10^-6 M): 74%
- activity at 0.5 µM ([5]; MCF-7, 5 × 10^-7 M): 76%
